# Data published in patent publication US10501453B2, “Benzothiazole or benzoxazole compounds as SUMO activators” (Icahn School of Medicine at Mount Sinai, priority 2012, dated 2019).
# Tests used:
# YFP-SUMO1 = YFP-SUMO1 accumulation (cell image) in HEK-293 cells expressing YFP-SUMO1 and pcDNA3.0-SERCA2a; format: cell-based; conditions: increase vs. DMSO; for fold induction at 10 µM: Homo sapiens, HEK293, 24 hours; for YFP accumulation: 10 μM, 24 hours
# Text: (§1) The following antibodies were used for immunoblotting and immunoprecipitation (IP): polyclonal anti-SERCA2a (21th century Biochem Inc.), monoclonal anti-GAPDH (Sigma-Aldrich, catalog no. G8795), monoclonal anti-SUMO 1 (Cell Signaling Technology Inc., catalog no. 4930), anti-mouse horseradish peroxidase (HRP) (Pierce Biotechnology Inc., catalog no. 32430), and anti-rabbit HRP (Pierce Biotechnology Inc., catalog no. 32460). YFP-tagged SUMO1, pcDNA3.0-SERCA2a, and HA-tagged Ubc9 plasmids were used for the transfection. The plasmid DNA was amplified in the Escherichia coli strain DH5a and extracted by using a commercial purification kit (Qiagen, catalog no. 12263). Purified plasmid was resuspended in sterile TE buffer (10 mM Tris-HCl and 1 mM EDTA, pH 7.6). Only the preparation highest purity (A260/A280>1.8) was used for transfection. 1 μg of each plasmid was used for transfection. HEK-293 cells (American Type Culture Collection, catalog no. CRL-1873) were grown at 37° C. and under a 5% CO2 humidified atmosphere in Dulbecco's modified Eagle's medium (DMEM, Cellgro, catalog no. 10-0 13-CM) containing 10% fetal bovine serum (SAFC Bioscience, catalog no. 12107) and 100 i.u of penicillin/ml and 100 μg of streptomycin/ml. HEK-293 cells were seeded at a density of 3-5×10^5 cells per 60 mm culture dish in DMEM. The cells were transiently transfected using Lipofectamine 2000 (Invitrogen, catalog no. 11668) with indicated expression plasmids. After 24 hours, the cells were treated with either small molecules or dimethyl sulfoxide (DMSO, Sigma-Aldrich, catalog no. D2650).
# (§2) Each compound was added at 10 μM. DMSO was used as a control. After 24 hours at 37° C., SERCA2a SUMOylation and functional analysis were determined.
# Cellular permeability and potential activity of the compounds were examined by tracking of the YFP-SUMO1. HEK-293 cells expressing YFP-SUMOI and pcDNA3.0-SERCA2a were incubated with either 10 μM DMSO or 10 μM small molecules for 24 hours at 37° C. Fluorescent signals were monitored by fluorescence microscopy. HA-tagged Ubc9 expressing cells were served as a positive control.
# The ability of the Example compound to SUMOylate SERCA2a was examined using an in vitro system in HEK 293 cells where both SERCA2a and SUMO 1 are expressed. The cellular permeability and potential activity of the Example compounds was examined by tracking of the YFP-SUM01. HEK-293 cells expressing YFP-SUM01 and pcDNA3.0-SERCA2a were treated with either 10 μM DMSO or 10 μM indicated Example 1 for 24 hrs. Fluorescent signals were monitored by fluorescence microscopy. HA-Ubc9 expressing cells were served as a positive control. The SERCA2a SUMOylation profiling was then analyzed by using the same cells (FIG. 1B, WCL, whole cell lysates; S-SERCA2a, SUMOylated SERCA2a).
# HEK-293 cells = assay: Toxicity (Table 2; cytotoxicity in the compound screen)
# SERCA2a = SERCA2a SUMOylation assay in HEK-293 cells (immunoprecipitation/immunoblotting); format: cell-based; conditions: compared with DMSO control; 10 μM
# Text: as §1, §2
# Equal amounts of protein from either small molecule treated or DMSO treated cells or immunoprecipitates were resolved by 7.5% SDS-PAGE and transferred to nitrocellulose membranes (Bio-Rad, catalog no. 162-0112). The membranes were blocked for 1 hour at room temperature with 5% non-fat milk (Cell Signaling Technology Inc., catalog no. 9999) in TBST (10 mM Tris-HCl, 150 mM NaCl, and 0.05% tween-20, pH 8.0). The blots were incubated with specific primary antibodies at 4° C. for overnight. The blots were then washed five times for 10 minutes each with TBST and incubated for 1 hour with HRP-conjugated secondary antibodies in TBST with 5% non-fat milk. After five times TBST washes, the protein bands were visualized with enhanced chemiluminescence (Pierce Biotechnology Inc., catalog no. 32132) and exposed to x-ray film (Denville Scientific Inc., catalog no. E3012). GAPDH expression provided an internal control.
# Post-transfection (48 hours), the HEK-293 cells were rinsed twice with phosphate-buffered saline (PBS, Cellgro, catalog no. 21-040-CM) and lysed in 1% Nonidet P-40 lysis buffer (Boston Bioproducts, catalog no. BP-119) with 10 mM N-ethylmaleimide (NEM, Sigma-Aldrich, catalog no. N3876) and […] inhibitor cocktail (Complete Mini Tablet, Roche Applied Science, catalog no. 11836153001). 2 mg of protein were mixed with the anti-SERCA2a antibodies for overnight at 4° C. in lysis buffer. Pre-washed protein A-Separose beads (Pierce Biotechnology Inc., catalog no. 20333) was added to each sample and incubated 1 hour at 4° C. with gentle rocking. Immunocomplexes were washed with lysis buffer three times and precipitated by centrifugation at 12000×g for 10 seconds. The immunocomplexes were resuspended in SDS sample buffer and subjected to immunoblotting. Controls for the immunoprecipitations were performed using an anti-rabbit IgG equal to that of the primary precipitating antibody. Ten percent of whole cell lysates used in the immunoprecipitation was loaded for subsequent immunoblotting.
# The ability of the Example compound to SUMOylate SERCA2a was examined using an in vitro system in HEK 293 cells where both SERCA2a and SUMO 1 are expressed. […]
# [1] = DMSO, organic solvent or mixture
solubility (Solubility (Table 2); [1]) [mM],solubility (Solubility (Table 2); in DMSO (printed for the 10 mM cells)),Structure (SMILES),fold induction at 10 µM (YFP-SUMO1),Toxicity (HEK-293 cells),SERCA2a SUMOylation (SERCA2a),YFP accumulation (YFP-SUMO1)
< 2.5,–,"Fc1ccc2nc(Nc3nnc(-c4ccccc4Cl)o3)sc2c1 [Example 11, 5-(2-chlorophenyl)-N-(6-fluorobenzo[d]thiazol-2-yl)-1,3,4-oxadiazol-2-amine]",–,> 50%,Not statistically significant,Active
< 2.5,–,"Fc1ccc(-c2nnc(Nc3nc4ccc(F)cc4s3)o2)cc1 [Example 12, N-(6-fluorobenzo[d]thiazol-2-yl)-5-(4-fluorophenyl)-1,3,4-oxadiazol-2-amine]",–,> 50%,Not statistically significant,Active
< 2.5,–,"COc1cccc(-c2nnc(Nc3nc4ccc(F)cc4s3)o2)c1 [Example 13, N-(6-fluorobenzo[d]thiazol-2-yl)-5-(3-methoxyphenyl)-1,3,4-oxadiazol-2-amine]",–,> 50%,Not statistically significant,Active
< 2.5,–,"COc1cccc(-c2nnc(Nc3nc4cc(OC)ccc4s3)o2)c1 [Example 15, N-(5-methoxybenzo[d]thiazol-2-yl)-5-(3-methoxyphenyl)-1,3,4-oxadiazol-2-amine]",–,> 50%,Not statistically significant,Active
< 2.5,–,"COc1ccc(-c2nnc(Nc3nc4cc(OC)ccc4s3)o2)cc1 [Example 16, N-(5-methoxybenzo[d]thiazol-2-yl)-5-(4-methoxyphenyl)-1,3,4-oxadiazol-2-amine]",–,> 50%,Not statistically significant,Active
5,–,"COc1ccc(-c2nnc(Nc3nc4cc(OC)c(OC)cc4s3)o2)cc1 [Example 17, N-(5,6-dimethoxybenzo[d]thiazol-2-yl)-5-(4-methoxyphenyl)-1,3,4-oxadiazol-2-amine]",2.2,Non-toxic,Not statistically significant,–
< 2.5,–,"COc1ccc(-c2nnc(Nc3nc4ccc(SC)cc4s3)o2)cc1 [Example 18, 5-(4-methoxyphenyl)-N-(6-(methylthio)benzo[d]thiazol-2-yl)-1,3,4-oxadiazol-2-amine]",–,> 50%,Not statistically significant,Active

# Second part, the compound before the results:
Structure (SMILES),solubility (Solubility (Table 2); [1]) [mM],solubility (Solubility (Table 2); in DMSO (printed for the 10 mM cells)),fold induction at 10 µM (YFP-SUMO1),Toxicity (HEK-293 cells),SERCA2a SUMOylation (SERCA2a),YFP accumulation (YFP-SUMO1)
"COc1cccc2sc(Nc3nnc(-c4ccc(F)cc4)o3)nc12 [Example 5, 5-(4-fluorophenyl)-N-(4-methoxybenzo[d]thiazol-2-yl)-1,3,4-oxadiazol-2-amine]",10,–,2.54,Non-toxic,Not statistically significant,–
"COc1ccc(-c2nnc(Nc3nc4c(OC)cccc4s3)o2)c(OC)c1 [Example 6, 5-(2,4-dimethoxyphenyl)-N-(4-methoxybenzo[d]thiazol-2-yl)-1,3,4-oxadiazol-2-amine]",10,–,2.93,30%,Not statistically significant,–
"Fc1cccc2sc(Nc3nnc(-c4ccccc4)o3)nc12 [Example 7, N-(4-fluorobenzo[d]thiazol-2-yl)-5-phenyl-1,3,4-oxadiazol-2-amine]",10,–,2.2,Non-toxic,Not statistically significant,–
"COc1ccc2nc(Nc3nnc(-c4ccccc4OC)o3)sc2c1 [Example 8, N-(6-methoxybenzo[d]thiazol-2-yl)-5-(2-methoxyphenyl)-1,3,4-oxadiazol-2-amine]",10,–,2.37,30%,Not statistically significant,–
"COc1ccc(-c2nnc(Nc3nc4ccc(OC)cc4s3)o2)cc1 [Example 9, N-(6-methoxybenzo[d]thiazol-2-yl)-5-(4-methoxyphenyl)-1,3,4-oxadiazol-2-amine]",–,Crystallized at 2.5,–,Toxic,Not statistically significant,Active
"COc1ccc2nc(Nc3nnc(-c4ccc(Cl)cc4)o3)sc2c1 [Example 10, 5-(4-chlorophenyl)-N-(6-methoxybenzo[d]thiazol-2-yl)-1,3,4-oxadiazol-2-amine]",< 2.5,–,–,> 50%,Not statistically significant,Active
